Data from patent US8895559B2, “Quinoxalines derivatives and pharmaceutical compositions and kits” (Merck Patent GmbH, priority 2010, dated 2014).

Test system: phospholipases
Test: not given
Details: cited from earlier work

| Compound | inhibitory activity on phospholipases |
| --- | --- |
| O=c1cc(N2CCOCC2)oc2c(-c3ccccc3)cccc12 [LY294002] | slight inhibitory activity |

Test system: neutrophils
Test: not given
Details: cited from earlier work

| Compound | neutrophil migration | superoxide release |
| --- | --- | --- |
| COC[C@H]1OC(=O)c2coc3c2[C@@]1(C)C1=C(C3=O)[C@@H]2CCC(=O)[C@@]2(C)C[C@H]1OC(C)=O [wortmannin] | block | block |
| O=c1cc(N2CCOCC2)oc2c(-c3ccccc3)cccc12 [LY294002] | block | block |

Test system: neutrophils
Test: not given
Details: treatment of neutrophils; Thelen et al. 1994; cited from earlier work

| Compound | fMLP-induced respiratory burst response |
| --- | --- |
| COC[C@H]1OC(=O)c2coc3c2[C@@]1(C)C1=C(C3=O)[C@@H]2CCC(=O)[C@@]2(C)C[C@H]1OC(C)=O [wortmannin] | prevents |

Test system: PI3K
Test: Cellular testing of PI3K inhibitors: P-S473-PKB Luminex assay in PC3 cells
Type: cell-based
Details: PI3K-dependent phosphorylation of PKB at Serin 473 in PC3 cells
Experimental: Description of the Method for the Cellular Testing of PI3K Inhibitors
The cellular assay for determination of the P-S473-PKB level is carried out as a Luminex assay in 96-well format in PC3 cells.
PC3 cells are sown out with 20,000 cells per well in 100 μl medium (45% RPMI1460/45% Ham's F12/10% FCS) and incubated on the following day for 30 min with a serial dilution of the test substance (7 concentrations) under serum-free conditions. […] The lysates are incubated overnight at 4° C. with shaking with Luminex beads to which an anti-total PKB antibody is coupled. The detection is carried out on the following day by addition of a P-S473-PKB antibody and a species-specific PE-labelled secondary antibody. The detection of P-S473-PKB is carried out by measurement in a Luminex 100 instrument by determination of 100 events per cavity in a measurement time of 60 sec. […] The values of the preparations treated with test substance are calculated from this as percent of control, and IC50 values are determined by means of RS1.

| Compound | IC50 |
| --- | --- |
| COc1cc(Nc2nc3ccccc3nc2NS(=O)(=O)c2cn(C)cn2)cc(OC)c1 [reference compound] | 985 nM |

Same assay, conditions: PI3 kinase inhibition, cell

| Compound | IC50 |
| --- | --- |
| COc1ccc(S(=O)(=O)Nc2nc3ccccc3nc2Nc2cc(OC)cc(OC)c2OCCOCCO)cc1 [Compound A61] | 100 to 10000 nM |
| COc1cc(Nc2nc3ccccc3nc2NS(=O)(=O)c2cn(C)cn2)c(OC)c(OC)c1 [Compound A92] | 100 to 10000 nM |
| COc1cc(Nc2nc3ccccc3nc2NS(=O)(=O)CCCS(C)(=O)=O)c(OCCCO)c(OC)c1 [Compound A36] | 1 to 100 nM |
| COc1cc(Nc2nc3ccccc3nc2NS(=O)(=O)c2cccnc2)c(OCCCO)c(OC)c1 [Compound A79] | 100 to 10000 nM |
| COc1cc(Nc2nc3ccccc3nc2NS(=O)(=O)c2cn(C)c(CN(C)C)n2)c(OCCC(C)(C)O)c(OC)c1 [Compound A128] | 100 to 10000 nM |
| COc1cc(Nc2nc3ccccc3nc2NS(=O)(=O)c2ccc(C#N)cc2)c(OCCS(=O)(=O)CCO)c(OC)c1 [Compound A76] | 1 to 100 nM |
| COc1cc(Nc2nc3ccccc3nc2NS(=O)(=O)c2cn(C)cn2)c2c(c1)OCCO2 [Compound A10] | 100 to 10000 nM |
| COc1cc(Nc2nc3ccccc3nc2NS(=O)(=O)c2cn(C)cn2)c(OCCS(C)(=O)=O)c(OC)c1 [Compound A55] | 1 to 100 nM |
| COc1cc(Nc2nc3ccccc3nc2NS(=O)(=O)c2cn(C)c(CN(C)C)n2)c(OCCCO)c(OC)c1 [Compound A33] | 100 to 10000 nM |
| COc1cc(Nc2nc3ccccc3nc2NS(=O)(=O)c2cn(C)c(CN(C)C)n2)c(OC)c(OC)c1 [Compound A31] | 100 to 10000 nM |
| COc1cc(Nc2nc3ccccc3nc2NS(=O)(=O)c2ccc(C#N)cc2)c(CCCCO)c(OC)c1 [Compound A6] | 1 to 100 nM |
| COc1cc(Nc2nc3ccccc3nc2NS(=O)(=O)c2ccc(CN)cc2)c(OCCCO)c(OC)c1 [Compound A106, 4-aminomethyl-N-{3-[2-(3-hydroxypropoxy)-3,5-dimethoxy-phenylamino]-quinoxalin-2-yl}benzenesulfonamide] | 1 to 100 nM |
| COc1cc(Nc2nc3ccccc3nc2NS(=O)(=O)c2ccn(C)n2)c(OCCOCCO)c(OC)c1 [Compound A112] | 100 to 10000 nM |

Biological target: CK2 protein kinase (Homo sapiens, UniProt P68400)
Test: not given
Details: cited from earlier work

Sequence of CK2 protein kinase (P68400 whole entry): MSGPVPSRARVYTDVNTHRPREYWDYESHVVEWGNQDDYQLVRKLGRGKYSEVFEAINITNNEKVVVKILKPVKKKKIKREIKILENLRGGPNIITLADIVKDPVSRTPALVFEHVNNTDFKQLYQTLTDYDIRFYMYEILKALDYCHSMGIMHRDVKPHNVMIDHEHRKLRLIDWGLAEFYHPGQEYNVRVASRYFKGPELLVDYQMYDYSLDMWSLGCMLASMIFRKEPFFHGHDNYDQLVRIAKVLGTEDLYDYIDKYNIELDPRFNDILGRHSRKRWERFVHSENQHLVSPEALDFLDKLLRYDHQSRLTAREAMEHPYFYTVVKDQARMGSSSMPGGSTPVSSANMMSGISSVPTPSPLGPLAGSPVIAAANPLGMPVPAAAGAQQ

| Compound | IC50 |
| --- | --- |
| O=c1cc(N2CCOCC2)oc2c(-c3ccccc3)cccc12 [LY294002] | 5 to 10 µM |
